Measured values as given in patent US20250382346A1, “NEURONAL PROMOTERS AND USES THEREOF” (priority 2023, published 2025).

Molecular target: T1, rM3Ds (Rattus norvegicus, UniProt P08483, A177S/A238G/A489L/DEL261-437/DEL441-478/E258S/I253V/I483M/INS256[…]/K178L/K182A/K255R/K484R/K486H/L173F/L482A/M480V/R171S/R176Q/R179M/S481M/T174R/T181R/T257A/Y148C)
T1 sequence (P08483 with tags, fused parts or gaps Y148C/R171S/L173F/T174R/R176Q/A177S/K178L/R179M/T181R/K182A/A238G/I253V/K255R/INS256[…]/T257A/E258S/DEL261-437/DEL441-478/M480V/S481M/L482A/I483M/K484R/K486H/A489L): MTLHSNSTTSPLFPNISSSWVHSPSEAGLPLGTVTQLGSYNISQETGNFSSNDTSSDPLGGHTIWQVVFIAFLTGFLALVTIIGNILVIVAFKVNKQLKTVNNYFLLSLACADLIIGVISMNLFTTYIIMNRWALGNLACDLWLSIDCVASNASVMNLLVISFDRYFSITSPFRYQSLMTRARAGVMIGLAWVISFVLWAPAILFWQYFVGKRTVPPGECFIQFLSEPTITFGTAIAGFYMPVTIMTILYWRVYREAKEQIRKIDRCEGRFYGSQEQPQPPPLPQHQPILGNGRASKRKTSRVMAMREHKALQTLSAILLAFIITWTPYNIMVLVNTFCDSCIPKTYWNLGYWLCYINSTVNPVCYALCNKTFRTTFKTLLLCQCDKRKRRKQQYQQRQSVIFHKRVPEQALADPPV
Assay: Chemogenetic manipulation of BG direct pathway in mice with rM3Ds: rotations, nigral c-Fos
Assay type: in vivo
Parameters: 2A-EYFP (C); expressed in transfected cells; host or cells: neurons (striatal D1-MSNs) of mice or cynomolgus macaques, transduced in vivo by nigral AAV8R12-G88P7-rM3Ds-2A-EYFP
Conditions: for contraversive rotations (FIG. 7A), mean±SEM: AAV8R12-G88P7-rM3Ds-2A-EYFP nigral, n=8; for rotation behavior (FIG. 7C), mean±SEM: control vector AAV8R12-G88P7-EYFP, n=5, no effect
Procedure: Mice were anesthetized with sodium pentobarbital (Nembutal; 80 mg/kg, i.p.), and then placed into a stereotaxic device (KOPF). Eye cream was applied on both corneas to avoid dehydration. The skull above the targeted areas was thinned with a dental drill and carefully removed. Injections were conducted with a 10 μL syringe connected to a 33-Gauge needle (Neuros; Hamilton), using a microsyringe pump (Legato 130, KD Scientific). A total volume of 200 nL virus was injected into the SNr at a speed of 20 nL/min. The coordinates for the SNr were 3.4 mm posterior, 1.3 mm lateral, 4.8 mm ventral to the bregma.
Mice that were used in the behavioral experiments were then implanted with guide cannulas (KOPF) unilaterally aiming at the dorsomedial striatum (0.5 mm anterior, 1.5 mm lateral, 3.5 mm ventral to the bregma). The cannulas were fixed to the skull with dental cement. Stainless steel obturators were inserted into the guide cannulas and were replaced every other day to maintain the patency until infusions were made. Mice were allowed to recover from the surgery for at least 3 weeks before further studies.
To further optimize the system, an alternative chemogenetic effector that would potentially allow specific manipulation of the direct pathway compatible with systemic CNO infusions needed to be identified. […]. A different chemogenetic effector, rM3Ds, which uses cAMP as the second messenger and can effectively activate striatal MSNs, was used to avoid the activation of SNr neurons upon systemic CNO administration.
Together, these findings confirm that the approach we developed is a durable solution for selective activity modulation of D1-MSNs and the BG direct pathway.
Mice were individually handled for 10-20 seconds per day for at least 5 days to habituate them to the experimenter. The open field test was conducted in a test apparatus (50 cm×50 cm×50 cm) with an HD digital camera (Sony) positioned above the arena. On day one, mice were habituated to the apparatus for 10 minutes. On day 2, mice were administrated saline (0.1 mL i.p. or 200 nL intracranially [i.e.] through the guide cannulas). On day 3, mice were administrated with Clozapine-N-oxide (CNO, Hello Bio, HB1807; 0.3 mg/kg i.p. or 200 nL at 100 μM i.e.). All behavioral tests were conducted 30 minutes after injection. During the test, mice were allowed to freely explore the apparatus for 10 minutes. The behavioral data were analyzed with ANY-maze software (Stoelting Co.).

SMILES: C[N+]1([O-])CCN(C2=Nc3cc(Cl)ccc3Nc3ccccc32)CC1 [CNO, Clozapine-N-oxide]
- contraversive rotations (FIG. 7A), mean±SEM (CNO i.p., saline 45.95±4.972): 80.05±5.168
- contraversive rotations (FIG. 7A), mean±SEM (CNO intracranial, saline 58.31±4.742): 80.77±4.187
- c-Fos+ cells in the SNr (AAV8R12-G88P7-rM3Ds-2A-EYFP, intraperitoneal and intracranial CNO): did not increase the number of c-Fos+ cells in the SNr
- rotation behavior (FIG. 7C), mean±SEM (CNO i.p., saline 48.68±7.203): 46.88±7.497
- rotation behavior (FIG. 7C), mean±SEM (CNO intracranial, saline 41.11±12.73): 34.55±7.536
